Our source for the IC50 and Kd values is US20240190849A1, “AMINOPYRIMIDINE COMPOUNDS AND METHODS OF THEIR USE” (TYRA BIOSCIENCES, INC., priority 2021, published 2024).

In test [1] the test system is KG-1 (Acute Myeloid Leukemia), FGFR1OP2-FGFR1 fusion. Nature of the test: Cancer cell viability assay (Cell Titer-Glo), KG-1. Format: cell-based. Particulars: Homo sapiens, KG-1 cells, 72 hours. The text has this:
(§1) RT112/84, UM-UC-14, SNU-16 and KG-1 Cancer Cell Line Cell Viability Assays
(§2) To detect the change of intracellular ATP by Cell Titer-Glo@ and to evaluate the inhibitory effect of the compounds on cancer cell lines by determining the in vitro IC50 value of the compounds.
(§3) Cell Titer-Glo@ 2.0 Luminescent cell viability assay reagent was purchased from Promega (Madison, WI). RT112/84, SNU-16, and KG-1 cell lines were purchased from American Type Culture Collection (Manassas, VA). UM-UC-14 cell line was purchased from Sigma (St. Louis, MO). RT112/84, UM-UC-14, SNU-16, and KG-1 cells were cultured in RPMI1640 media supplemented with 10% fetal bovine serum. Cultures were maintained at 37° C. in a humidified atmosphere of 5% CO2 and 95% air.
(§4) Cell Viability Assay Procedure: Cells were plated in 96-well clear bottom/white plates (Corning #3903) at 10,000 cells/well in 100 μl of media, incubated overnight. The next day, test compound DMSO stock solutions were made at 10 mM and 2 μM final concentration. Compounds were then added to cells in a 9-dose, […] dilution series starting at 30 μM with an HP 300e Digital Dispenser (each dose was applied in triplicate). DMSO was backfilled to each well up to 301 nL total volume of test compound+DMSO, and a total of 301 nL DMSO was added to a control/no test compound well in triplicate. The cells in cell culture plates were incubated with the compounds at 37° C. and 5% CO2 for 72 hours. Then 50 μl of Cell Titer Glo 2.0 reagent was added to each well of the cell culture plates. The contents were covered from light and mixed on an orbital shaker at room temperature for 10 min. Luminescence was recorded by a Synergy H1 Microplate Reader (Biotek, Winooski, VT). Cells were assessed as a percentage of DMSO only treated control cells. Curves were plotted and IC50 values were calculated using the GraphPad Prism 8 program based on a sigmoidal dose-response equation (4 parameter).

Test [2] relates to RT112/84 (Bladder Cancer), FGFR3-TACC3 fusion. Briefly: Cancer cell viability assay (Cell Titer-Glo), RT112/84. It is filed as cell-based. Particulars: Homo sapiens, RT112/84 cells, 72 hours.
Source text: as §1, §2, §3, §4

In test [3] the target is T1, FGFR3 (Homo sapiens, UniProt P22607).
T1 construct: made in house; host or cells: E. coli derived from BL21, infected with T7 phage
Briefly: Kinase binding assay (kinase-tagged T7 phage, affinity beads, qPCR readout), FGFR3. Particulars: FGFR binding data. The essentials: (§5)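 Competition binding: kinases displaced from biotinylated-ligand streptavidin beads by test compound in binding buffer (20% SeaBlock, 0.17×PBS, 0.05% Tween 20, 6 mM DTT), 1 hour at room temperature, 0.9% DMSO. Bead-bound kinase eluted with 0.5 μM free ligand, quantified by qPCR. Kd from 11-point 3-fold dilutions, Hill slope fixed at −1.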

In test [4] the target is T2, FGFR3 (V555M) (Homo sapiens, UniProt P22607, V555M).
T2 construct: made in house; host or cells: E. coli derived from BL21, infected with T7 phage
Nature of the test: Kinase binding assay (kinase-tagged T7 phage, affinity beads, qPCR readout), FGFR3 (V555M). Particulars: FGFR binding data. In short, it runs like this:
as §5

Test [5] relates to UM-UC-14 (Bladder Cancer), FGFR3(S249C). Nature of the test: Cancer cell viability assay (Cell Titer-Glo), UM-UC-14. It is filed as cell-based. Particulars: UMUC14, UM-UC-14 cells, 72 hours.
Source text: as §1, §2, §3, §4

For test [6], the target named is T3, FGFR2 (Homo sapiens, UniProt P21802).
T3 construct: made in house; host or cells: E. coli derived from BL21, infected with T7 phage
Nature of the test: Kinase binding assay (kinase-tagged T7 phage, affinity beads, qPCR readout), FGFR2. Particulars: FGFR binding data. In short, it runs like this:
as §5

Test [7] deals with T4, FGFR1 (Homo sapiens, UniProt P11362).
T4 construct: made in house; host or cells: E. coli derived from BL21, infected with T7 phage
Nature of the test: Kinase binding assay (kinase-tagged T7 phage, affinity beads, qPCR readout), FGFR1. Particulars: FGFR binding data. The essentials:
as §5

The subject of test [8] is SNU-16 (Gastric Carcinoma), FGFR2 amplification. Nature of the test: Cancer cell viability assay (Cell Titer-Glo), SNU-16. Format: cell-based. Particulars: Homo sapiens, SNU-16 cells, 72 hours, read-out: SNU16 FGFR2 (IC50 nM). The essentials:
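Cells seeded at 10,000/well in RPMI1640 with 10% FBS, then exposed 72 h at 37° C. to a 9-point 10-fold dilution series from 30 μM, in triplicate. Viability read as ATP luminescence (CellTiter-Glo 2.0) as percent of DMSO control; IC50 from 4-parameter sigmoidal fit.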

Bounds are passed on as bounds.

T1 sequence (P22607 23-806): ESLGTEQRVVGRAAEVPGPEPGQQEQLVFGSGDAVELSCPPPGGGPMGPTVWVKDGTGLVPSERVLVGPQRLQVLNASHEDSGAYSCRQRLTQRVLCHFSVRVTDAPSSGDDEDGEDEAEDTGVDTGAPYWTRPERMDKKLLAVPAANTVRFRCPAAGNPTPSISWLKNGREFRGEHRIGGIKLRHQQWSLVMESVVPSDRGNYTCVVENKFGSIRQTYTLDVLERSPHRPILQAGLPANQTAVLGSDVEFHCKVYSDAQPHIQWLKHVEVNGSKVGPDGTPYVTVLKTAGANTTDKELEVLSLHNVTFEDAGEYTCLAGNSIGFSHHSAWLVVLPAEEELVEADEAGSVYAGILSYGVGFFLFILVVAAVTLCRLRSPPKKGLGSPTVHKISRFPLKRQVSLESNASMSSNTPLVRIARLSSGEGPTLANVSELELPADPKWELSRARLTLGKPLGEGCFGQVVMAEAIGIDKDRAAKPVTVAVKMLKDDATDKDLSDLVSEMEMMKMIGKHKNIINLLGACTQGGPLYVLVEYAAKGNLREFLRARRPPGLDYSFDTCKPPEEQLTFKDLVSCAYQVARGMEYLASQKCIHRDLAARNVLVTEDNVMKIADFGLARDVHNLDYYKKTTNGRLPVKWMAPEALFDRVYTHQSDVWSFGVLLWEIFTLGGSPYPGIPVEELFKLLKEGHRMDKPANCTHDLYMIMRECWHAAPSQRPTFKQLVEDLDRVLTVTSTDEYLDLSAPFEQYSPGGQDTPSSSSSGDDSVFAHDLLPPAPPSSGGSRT
T3 sequence (P21802 22-821): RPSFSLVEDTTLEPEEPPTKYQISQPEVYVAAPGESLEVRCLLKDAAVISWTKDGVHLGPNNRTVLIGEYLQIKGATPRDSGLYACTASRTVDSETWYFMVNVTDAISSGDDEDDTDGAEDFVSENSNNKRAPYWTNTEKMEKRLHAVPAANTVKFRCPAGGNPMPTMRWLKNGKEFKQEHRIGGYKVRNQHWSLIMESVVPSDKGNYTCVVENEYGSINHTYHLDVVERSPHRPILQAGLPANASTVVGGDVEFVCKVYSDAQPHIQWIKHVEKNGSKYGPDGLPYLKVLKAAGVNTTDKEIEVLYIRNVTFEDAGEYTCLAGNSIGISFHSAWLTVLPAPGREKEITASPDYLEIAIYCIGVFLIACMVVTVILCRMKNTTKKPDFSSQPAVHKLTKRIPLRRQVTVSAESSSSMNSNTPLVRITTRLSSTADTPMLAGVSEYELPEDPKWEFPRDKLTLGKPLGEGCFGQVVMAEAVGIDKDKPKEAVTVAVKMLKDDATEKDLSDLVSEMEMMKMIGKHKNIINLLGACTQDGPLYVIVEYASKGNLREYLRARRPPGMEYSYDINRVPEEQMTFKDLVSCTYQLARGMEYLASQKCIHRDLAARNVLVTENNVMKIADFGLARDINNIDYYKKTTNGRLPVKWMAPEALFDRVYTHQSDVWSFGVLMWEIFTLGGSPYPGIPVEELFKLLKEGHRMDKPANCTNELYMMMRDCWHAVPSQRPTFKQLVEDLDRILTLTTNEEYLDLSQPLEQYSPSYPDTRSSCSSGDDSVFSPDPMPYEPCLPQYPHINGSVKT
T4 sequence (P11362 22-822): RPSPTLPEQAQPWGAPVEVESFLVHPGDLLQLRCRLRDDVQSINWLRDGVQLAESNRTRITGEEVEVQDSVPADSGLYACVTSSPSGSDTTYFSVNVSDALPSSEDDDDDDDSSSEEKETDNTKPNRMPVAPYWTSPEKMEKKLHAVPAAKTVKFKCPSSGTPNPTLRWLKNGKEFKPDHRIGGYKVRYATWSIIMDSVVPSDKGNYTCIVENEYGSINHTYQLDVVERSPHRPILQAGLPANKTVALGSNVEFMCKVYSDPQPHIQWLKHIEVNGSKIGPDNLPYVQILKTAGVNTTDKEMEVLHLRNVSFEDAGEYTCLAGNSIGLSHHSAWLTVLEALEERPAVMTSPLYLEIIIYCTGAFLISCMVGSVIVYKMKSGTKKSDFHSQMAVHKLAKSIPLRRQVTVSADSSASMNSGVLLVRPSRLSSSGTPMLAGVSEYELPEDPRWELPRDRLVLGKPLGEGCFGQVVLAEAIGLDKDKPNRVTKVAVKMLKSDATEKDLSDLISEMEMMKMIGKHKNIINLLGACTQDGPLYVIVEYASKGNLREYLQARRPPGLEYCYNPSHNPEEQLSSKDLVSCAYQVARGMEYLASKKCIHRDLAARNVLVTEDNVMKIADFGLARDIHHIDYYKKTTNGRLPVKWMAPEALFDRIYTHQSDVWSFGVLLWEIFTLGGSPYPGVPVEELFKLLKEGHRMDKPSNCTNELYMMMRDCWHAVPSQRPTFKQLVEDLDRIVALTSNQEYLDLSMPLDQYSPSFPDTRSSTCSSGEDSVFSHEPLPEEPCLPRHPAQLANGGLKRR
T2 sequence (P22607 23-806 V555M): as the sequence (P22607 23-806) above, with V533M counted along it

In the case of `C=CC(=O)Nc1ccc2c(ccn2-c2nc(Nc3cnn(C)c3)ncc2Cl)c1` [Example 2, N-[1-[5-chloro-2-[(1-methylpyrazol-4-yl)amino]pyrimidin-4-yl]indol-5-yl]prop-2-enamide], the 50% inhibitory concentration (IC50) in test [1], in test [2] and in test [5] was 0.1 to 100 nM in each case. Also, the Kd in test [3], in test [4], in test [6] and in test [7] was 0.1 to 100 nM throughout.
On to `C=CC(=O)Nc1ccc2c(ccn2-c2nc(Nc3cccc(OCCN4CCOCC4)c3)ncc2Cl)c1C` [Example 7, N-[1-[5-chloro-2-[3-(2-morpholinoethoxy)anilino]pyrimidin-4-yl]-4-methyl-indol-5-yl]prop-2-enamide], for which the IC50 in test [1] was 250 to 1000 nM; in test [2], > 1000 nM; in test [5], > 1000 nM. Also, the equilibrium dissociation constant (Kd) in test [3] lay within 100 to 250 nM; in test [4], 0.1 to 100 nM; in test [6], 100 to 250 nM; in test [7], 0.1 to 100 nM.
As to `C=CC(=O)Nc1ccc2c(c1)c(C)cn2-c1nc(Nc2cnn(C)c2)ncc1C` [Example 8, N-[3-Methyl-1-[5-methyl-2-[(1-methylpyrazol-4-yl)amino]pyrimidin-4-yl]indol-5-yl]prop-2-enamide], the half-inhibitory concentration (IC50) in test [1], in test [2] and in test [5] was 0.1 to 100 nM each time. Further, the Kd in test [3], in test [4], in test [6] and in test [7] was 0.1 to 100 nM throughout.
For the compound `C=CC(=O)Nc1ccc2c(c1)c(C)cn2-c1nc(Nc2cccc(OCCN3CCOCC3)c2)ncc1C` [Example 9, N-[3-methyl-1-[5-methyl-2-[3-(2-morpholinoethoxy)anilino]pyrimidin-4-yl]indol-5-yl]prop-2-enamide], the half-inhibitory concentration (IC50) in test [1], in test [2] and in test [5] was 0.1 to 100 nM throughout. The equilibrium dissociation constant (Kd) in test [3], in test [4], in test [6] and in test [7] was 0.1 to 100 nM each time.
Turning to `C=CC(=O)Nc1ccc2c(ccn2-c2nc(Nc3ccc(OCCN4CCOCC4)cc3)ncc2Cl)c1` [Example 10, N-[1-[5-chloro-2-[4-(2-morpholinoethoxy)anilino]pyrimidin-4-yl]indol-5-yl]prop-2-enamide], the half-inhibitory concentration (IC50) in test [1], in test [2] and in test [5] was 0.1 to 100 nM throughout. For the same compound, the Kd in test [3] was in the range of 0.1 to 100 nM; in test [4], 0.1 to 100 nM; in test [6], 100 to 250 nM; in test [7], 100 to 250 nM.
For the compound `C=CC(=O)Nc1ccc2c(c1)c(C)cn2-c1nc(Nc2ccc(OCCN3CCOCC3)cc2)ncc1C` [Example 19, N-[3-methyl-1-[5-methyl-2-[4-(2-morpholinoethoxy)anilino]pyrimidin-4-yl]indol-5-yl]prop-2-enamide], the IC50 in test [1], in test [2] and in test [5] was 0.1 to 100 nM throughout. Besides, the equilibrium dissociation constant (Kd) in test [3], in test [4], in test [6] and in test [7] was 0.1 to 100 nM in each case.
As to `C=CC(=O)Nc1ccc2c(c1)c(C)cn2-c1nc(Nc2ccc(N3CCOCC3)c(F)c2)ncc1Cl` [Example 22, N-[1-[5-chloro-2-(3-fluoro-4-morpholino-anilino)pyrimidin-4-yl]-3-methyl-indol-5-yl]prop-2-enamide], the IC50 in test [1], in test [2] and in test [5] was 0.1 to 100 nM each time. In addition, the Kd in test [3], in test [4], in test [6] and in test [7] was 0.1 to 100 nM throughout.
In the case of `C=CC(=O)Nc1ccc2c(-c3ccnc(Nc4ccc(N5CCOCC5)cc4)n3)cn(C)c2c1` [Example 53, N-[1-Methyl-3-[2-(4-morpholino-anilino)pyrimidin-4-yl]indol-6-yl]prop-2-enamide], the IC50 in test [1], in test [8] and in test [5] was 0.1 to 100 nM in each case. The dissociation constant Kd in test [3], in test [4], in test [6] and in test [7] was 0.1 to 100 nM in each case.
Consider `C=CC(=O)Nc1ccc2c(c1)c(CC)cn2-c1nc(Nc2cnn(C)c2)ncc1C` [Example 136, N-[3-ethyl-1-[5-methyl-2-[(1-methylpyrazol-4-yl)amino]pyrimidin-4-yl]indol-5-yl]prop-2-enamide], for which the half-maximal inhibitory concentration (IC50) in test [2], in test [8] and in test [5] was 0.1 to 100 nM in each case. Besides, the equilibrium dissociation constant (Kd) in test [3], in test [4], in test [6] and in test [7] was 0.1 to 100 nM in each case.
In the case of `C=CC(=O)Nc1ccc2c(c1)c(C)cn2-c1nc(Nc2cnn(C)c2C)ncc1F` [Example 146, N-[1-[2-[(1,5-dimethylpyrazol-4-yl)amino]-5-fluoro-pyrimidin-4-yl]-3-methyl-indol-5-yl]prop-2-enamide], the IC50 in test [1], in test [8] and in test [5] was 0.1 to 100 nM throughout. The Kd in test [3], in test [4], in test [6] and in test [7] was 0.1 to 100 nM in each case.
`C=CC(=O)Nc1ccc2c(c1)c(C)cn2-c1nc(Nc2cnn(CCCO)c2)ncc1F` [Example 160, N-[1-[5-fluoro-2-[[1-(3-hydroxypropyl)pyrazol-4-yl]amino]pyrimidin-4-yl]-3-methyl-indol-5-yl]prop-2-enamide]: the half-maximal inhibitory concentration (IC50) in test [2], in test [8] and in test [5] was 0.1 to 100 nM in each case. Also, the Kd in test [3], in test [4], in test [6] and in test [7] was 0.1 to 100 nM throughout.
On to `C=CC(=O)Nc1ccc2c(c1)c(C)cn2-c1nc(Nc2cnn(CCOC)c2)ncc1F` [Example 163, N-[1-[5-fluoro-2-[[1-(2-methoxyethyl)pyrazol-4-yl]amino]pyrimidin-4-yl]-3-methyl-indol-5-yl]prop-2-enamide], for which the IC50 in test [2], in test [8] and in test [5] was 0.1 to 100 nM in each case. Also, the Kd in test [3], in test [4], in test [6] and in test [7] was 0.1 to 100 nM in each case.
As to `C=CC(=O)Nc1ccc2c(c1)c(C)cn2-c1nc(Nc2cn(C)nc2C)ncc1F` [Example 167, N-[1-[2-[(1,3-Dimethylpyrazol-4-yl)amino]-5-fluoro-pyrimidin-4-yl]-3-methyl-indol-5-yl]prop-2-enamide], the half-maximal inhibitory concentration (IC50) in test [2], in test [8] and in test [5] was 0.1 to 100 nM in each case. Besides, the equilibrium dissociation constant (Kd) in test [3], in test [4], in test [6] and in test [7] was 0.1 to 100 nM in each case.
Turning to `C=CC(=O)Nc1ccc2c(c1)c(C)cn2-c1nc(Nc2cnn(CC(C)(C)O)c2)ncc1F` [Example 181, N-[1-[5-fluoro-2-[[1-(2-hydroxy-2-methyl-propyl)pyrazol-4-yl]amino]pyrimidin-4-yl]-3-methyl-indol-5-yl]prop-2-enamide], the IC50 in test [2], in test [8] and in test [5] was 0.1 to 100 nM throughout. For the same compound, the Kd in test [3], in test [4], in test [6] and in test [7] was 0.1 to 100 nM in each case.
